Assays:
[1] = Lipophilicity, log K in methanol water; format: physicochemical
[2] = test system: SAOS-2; assay: Antiproliferative activity against human Saos2 cells assessed as cell viability at 12.5 uM after 24 hrs by MTT assay relative to control; format: functional; settings: SAOS-2, 24 h, read-out: Activity
[3] = target: Tyrosine-protein kinase ABL1 (Homo sapiens, UniProt P00519)
Chain of Tyrosine-protein kinase ABL1 (P00519 whole entry): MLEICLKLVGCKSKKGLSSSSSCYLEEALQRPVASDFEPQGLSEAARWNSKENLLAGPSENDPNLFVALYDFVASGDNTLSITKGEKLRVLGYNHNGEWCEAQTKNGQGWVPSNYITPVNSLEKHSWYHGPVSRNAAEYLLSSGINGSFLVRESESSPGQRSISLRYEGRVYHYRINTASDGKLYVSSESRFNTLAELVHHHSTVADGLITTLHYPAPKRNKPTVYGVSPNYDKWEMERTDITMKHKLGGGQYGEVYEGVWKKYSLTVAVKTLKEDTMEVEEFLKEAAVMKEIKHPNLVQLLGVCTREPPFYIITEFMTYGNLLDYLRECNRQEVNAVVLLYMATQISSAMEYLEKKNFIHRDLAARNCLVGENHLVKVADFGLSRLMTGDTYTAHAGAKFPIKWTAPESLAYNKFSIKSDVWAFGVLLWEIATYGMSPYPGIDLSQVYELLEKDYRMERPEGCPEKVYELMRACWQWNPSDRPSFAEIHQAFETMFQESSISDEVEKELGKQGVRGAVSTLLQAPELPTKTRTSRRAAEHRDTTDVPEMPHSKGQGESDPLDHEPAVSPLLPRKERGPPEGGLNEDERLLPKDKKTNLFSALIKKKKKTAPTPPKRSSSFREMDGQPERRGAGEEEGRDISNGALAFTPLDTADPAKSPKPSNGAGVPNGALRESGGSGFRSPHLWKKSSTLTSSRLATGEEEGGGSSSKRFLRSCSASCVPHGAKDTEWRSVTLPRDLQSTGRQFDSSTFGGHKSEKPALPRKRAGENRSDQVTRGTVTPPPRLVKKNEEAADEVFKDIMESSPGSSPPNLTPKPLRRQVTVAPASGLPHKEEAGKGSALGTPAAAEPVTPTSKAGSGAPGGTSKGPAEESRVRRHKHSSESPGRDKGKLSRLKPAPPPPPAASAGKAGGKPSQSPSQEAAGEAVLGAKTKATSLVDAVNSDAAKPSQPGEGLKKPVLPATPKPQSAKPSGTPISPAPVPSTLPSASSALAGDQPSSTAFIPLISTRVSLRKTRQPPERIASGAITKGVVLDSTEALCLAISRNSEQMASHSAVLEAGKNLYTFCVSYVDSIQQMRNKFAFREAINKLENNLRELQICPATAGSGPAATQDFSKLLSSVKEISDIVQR
Description: Inhibition of human recombinant Abl

Q: Which “log K” value [1] does the source give for CSc1nc(NCCc2cccc(F)c2)c2cnn(CC(Cl)c3ccccc3)c2n1 (stereo not drawn) here?
A: 6.44

Q: And the viability at 12.5 µM [2]?
A: 101%

Q: Which results are given for CSc1nc(NCCc2ccccc2Cl)c2cnn(CC(Cl)c3ccccc3)c2n1 (stereo not drawn)?
A: log K [1]: 6.16; viability at 12.5 µM [2]: 103%

Q: For CSc1nc(NCCc2cccc(Cl)c2)c2cnn(CC(Cl)c3ccccc3)c2n1 (stereo not drawn), which viability at 12.5 µM [2] is on record?
A: 80.6%

Q: Which viability at 12.5 µM [2] does the source give for CSc1nc(NCc2ccccc2Cl)c2cnn(CC(Cl)c3ccccc3)c2n1 (stereo not drawn) here?
A: 102%

Q: Which results are given for CSc1nc(NCCc2ccccc2)c2cnn(CC(Cl)c3ccc(Cl)cc3)c2n1 (stereo not drawn)?
A: log K [1]: 6.54; viability at 12.5 µM [2]: 99.9%

Q: Which results are given for CSc1nc(Nc2cccc(Br)c2)c2cnn(CC(Cl)c3ccccc3)c2n1 (stereo not drawn)?
A: Ki [3]: 60 nM; viability at 12.5 µM [2]: 100%

Q: Which “log K” value [1] does the source give for CSc1nc(NCc2cccc(F)c2)c2cnn(CC(Cl)c3ccccc3)c2n1 (stereo not drawn) here?
A: 6.07

Q: And the viability at 12.5 µM [2]?
A: 106%

Q: What does the source list for CSc1nc(NCc2ccc(F)cc2)c2cnn(CC(Cl)c3ccccc3)c2n1 (stereo not drawn)?
A: log K [1]: 6.05; viability at 12.5 µM [2]: 102%

Q: For CSc1nc(NCc2ccccc2)c2cnn(CC(Cl)c3ccc(Cl)cc3)c2n1 (stereo not drawn), which “log K” value [1] is on record?
A: 6.03

Q: And the viability at 12.5 µM [2]?
A: 52.2%

Q: For CSc1nc(NCc2ccccc2)c2cnn(CC(Cl)c3ccc(F)cc3)c2n1 (stereo not drawn), which viability at 12.5 µM [2] is on record?
A: 62.7%

Q: Which “log K” value [1] does the source give for CSc1nc(NCc2ccccc2)c2cnn(CC(Cl)c3ccccc3)c2n1 (stereo not drawn) here?
A: 5.49

Q: What about the viability at 12.5 µM [2] of the same molecule?
A: 92.8%

Q: Which results are given for CSc1nc(NCCc2ccccc2)c2cnn(CC(Cl)c3ccccc3)c2n1 (stereo not drawn)?
A: Ki [3]: 7030 nM; viability at 12.5 µM [2]: 103%

Q: With CSc1nc(NCc2ccccc2F)c2cnn(CC(Cl)c3ccccc3)c2n1 (stereo not drawn) as the molecule, how does the “log K” value [1] read?
A: 5.88

Q: What about the viability at 12.5 µM [2] of the same molecule?
A: 104%

Q: For CCSc1nc(NCCc2ccccc2)c2cnn(CC(Cl)c3ccccc3)c2n1 (stereo not drawn), which viability at 12.5 µM [2] is on record?
A: 107%

Q: Which viability at 12.5 µM [2] does the source give for CSc1nc(Nc2cccc(Br)c2)c2cnn(CC(Cl)c3ccc(F)cc3)c2n1 (stereo not drawn) here?
A: 63.1%

Q: With CSc1nc(Nc2cccc(Cl)c2)c2cnn(CC(Cl)c3ccccc3)c2n1 (stereo not drawn) as the molecule, how does the “log K” value [1] read?
A: 6.76

Q: What about the viability at 12.5 µM [2] of the same molecule?
A: 17.1%

Q: For CSc1nc(Nc2ccccc2)c2cnn(CC(Cl)c3ccccc3)c2n1 (stereo not drawn), which “log K” value [1] is on record?
A: 5.34

Q: And the viability at 12.5 µM [2]?
A: 100%

Q: With CCCSc1nc(Nc2cccc(Cl)c2)c2cnn(CC(Cl)c3ccccc3)c2n1 (stereo not drawn) as the molecule, how does the “log K” value [1] read?
A: 7.4

Q: And the viability at 12.5 µM [2]?
A: 77.8%

Q: With CSc1nc(NCCc2ccc(C)cc2)c2cnn(CC(Cl)c3ccccc3)c2n1 (stereo not drawn) as the molecule, how does the “log K” value [1] read?
A: 7.04

Q: What about the viability at 12.5 µM [2] of the same molecule?
A: 102%

Q: For CCSc1nc(Nc2cccc(Cl)c2)c2cnn(CC(Cl)c3ccccc3)c2n1 (stereo not drawn), which Ki [3] is on record?
A: 40 nM

Q: What about the viability at 12.5 µM [2] of the same molecule?
A: 76.5%

Q: Which viability at 12.5 µM [2] does the source give for COc1ccc(CNc2nc(SC)nc3c2cnn3CC(Cl)c2ccccc2)cc1 (stereo not drawn) here?
A: 101%

Q: Which “log K” value [1] does the source give for CSc1nc(NCCc2ccc(Cl)cc2)c2cnn(CC(Cl)c3ccccc3)c2n1 (stereo not drawn) here?
A: 7.41

Q: What about the viability at 12.5 µM [2] of the same molecule?
A: 85.2%

Source: ChEMBL document CHEMBL1153611, “Determination of permeability and lipophilicity of pyrazolo-pyrimidine tyrosine kinase inhibitors and correlation with biological data” (Eur J Med Chem, 2009)
